These results are taken from PMC6338644 (The FASEB Journal, 2018).

Assay [1] has as its target T1, His-tagged human SHIP2 phosphatase domain (Homo sapiens, UniProt O15357).
T1 construct: we produced a His-tagged human SHIP2 phosphatase domain; His; made in house
T1 sequence (O15357 419-732 limits assumed): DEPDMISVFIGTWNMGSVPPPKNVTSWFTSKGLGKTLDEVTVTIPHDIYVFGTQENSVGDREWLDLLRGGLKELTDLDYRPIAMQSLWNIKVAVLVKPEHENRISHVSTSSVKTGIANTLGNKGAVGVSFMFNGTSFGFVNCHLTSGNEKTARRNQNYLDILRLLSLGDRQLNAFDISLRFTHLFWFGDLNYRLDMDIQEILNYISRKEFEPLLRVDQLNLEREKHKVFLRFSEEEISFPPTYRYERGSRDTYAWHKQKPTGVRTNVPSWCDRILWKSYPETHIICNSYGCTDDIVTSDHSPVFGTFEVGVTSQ
Nature of the assay: Malachite green phosphate assay, recombinant SHIP2 phosphatase domain (High Throughput Biomedicine Unit, 384-well). To be noted: for inhibition at 100 µM: inhibitors at 100 µM concentration, read-out: SHIP2 Inhibition efficiency; for IC50: purified His-tagged phosphatase domain, 100 µM PI(3,4,5)P3. In kind it is biochemical. The method, then:
(§1) Recombinant His-tagged human SHIP2 and SHIP1 phosphatase domains were produced as previously described ([17]). […] Immunocomplexes were bound to protein G-Sepharose beads at +4°C for 2 h and washed 3 times with malachite green phosphate assay buffer {10 mM 4-(2-hydroxyethyl)-1-piperazineethanesulfonic acid (HEPES), pH 7.25, 6 mM MgCl2, 0.1% 3-[(3-cholamidopropyl)dimethylammonio]-1-propanesulfonate (CHAPS), 250 mM sucrose, and 0.25 mM EDTA}.
(§2) The catalytic activities of the recombinant SHIP2 and SHIP1 phosphatase domains were determined by malachite green phosphate assay at the High Throughput Biomedicine Unit (University of Helsinki) using D-myo-PI(3,4,5)P3 (Echelon Biosciences, Salt Lake City, UT, USA). Different volumes, resulting in desired final concentrations of inhibitors, were transferred to the wells of 384-well plates by using the Echo550 acoustic dispenser (Labcyte, San Jose, CA, USA). Recombinant protein (100 ng) in reaction buffer {10 mM HEPES, pH 7.25, 6 mM MgCl2, 0.1% CHAPS, 250 mM sucrose, and 0.25 mM EDTA} was placed in each well (7.5 µl), and the plates were preincubated at room temperature for 15 min. The phosphatase reaction was started by adding PI(3,4,5)P3 diluted in the reaction buffer (7.5 µl) to each well to reach a final concentration of 100 µM PI(3,4,5)P3 in the 15 µl reaction volume. The plates were incubated at room temperature for 20 min, after which, 15 µl BIOMOL green reagent (Biomol, Plymouth Meeting, PA, USA) was added to each well, and then the plates were incubated for another 25 min at room temperature. Absorbance was measured at 620 nm using a Pherastar FS plate reader (BMG Labtech, Offenburg, Germany). For the manual malachite green phosphate assay in 96-well plates [see Fig. 1; and activity measurement of phosphatase and tensin homolog (PTEN; Signalchem, Richmond, BC, Canada)], the reaction volume was increased to 50 µl, and 100 µl Biomol Green Reagent was added. The catalytic activity of SHIP2 immunoprecipitated from cell and tissue lysates was determined as in Saurus et al. ([22]), omitting SHIP2 inhibitors in lysis buffer, immunoprecipitation reaction, wash, and assay buffers. AS1949490 was synthesized, as described in Supplemental Fig. S1A, or purchased from Tocris Bioscience (Bristol, United Kingdom).

In assay [2] the target is T2, His-tagged human SHIP1 phosphatase domain (Homo sapiens, UniProt Q92835).
T2 construct: Recombinant His-tagged human SHIP2 and SHIP1 phosphatase domains were produced as previously described; His; made in house
T2 sequence (Q92835 399-715 limits assumed): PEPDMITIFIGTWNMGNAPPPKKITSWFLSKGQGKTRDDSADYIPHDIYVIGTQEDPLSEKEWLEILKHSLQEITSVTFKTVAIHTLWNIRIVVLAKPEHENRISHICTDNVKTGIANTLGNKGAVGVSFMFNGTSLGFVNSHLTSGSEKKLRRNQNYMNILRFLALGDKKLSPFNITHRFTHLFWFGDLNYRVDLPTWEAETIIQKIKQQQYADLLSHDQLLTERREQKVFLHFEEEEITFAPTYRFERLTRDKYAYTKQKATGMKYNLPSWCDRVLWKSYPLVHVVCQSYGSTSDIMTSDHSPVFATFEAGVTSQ
Put plainly: Malachite green phosphate assay, recombinant SHIP1 phosphatase domain (High Throughput Biomedicine Unit). To be noted: for inhibition at 100 µM: inhibitors at 100 µM concentration, read-out: SHIP1 Inhibition efficiency; for IC50: purified His-tagged phosphatase domain. In kind it is biochemical. How it is done:
as §1, §2

The next assay deals with db/db mice. To be noted: cited from earlier work.
In assay [3] the test system is Immortalized human podocytes. Put plainly: Glucose uptake assay in podocytes. Format: cell-based. How it is done: (§3) Immortalized human podocytes were maintained as previously described ([10]). […] Podocytes were lysed as previously described ([21]).
(§4) Glucose uptake assay and On-Cell Western were performed essentially as in Tolvanen et al. ([19]). […] Cells were transferred on ice; incubated with anti-HA IgG in serum-free medium for 15 min, followed by additional incubation in fresh cell differentiation medium for 15 min at +37°C; and fixed with 2% paraformaldehyde for 20 min. Cells were incubated with IRDye 800 donkey anti-mouse IgG and nuclear marker DRAQ-5 (Thermo Fisher Scientific). Detection and quantitation were performed with the Odyssey Infrared Imager (Li-Cor Biosciences, Lincoln, NE, USA).
(§5) L6-GLUT4 myotubes overexpressing SHIP2 were treated and glucose uptake performed as described in C. […] Time point 15 min indicates the amount of HA detected on the cells after 15 min internalization.

A further assay relates to L6-GLUT4 myotubes. Put plainly: Glucose uptake assay in L6-GLUT4 myotubes. Format: cell-based, rat. To be noted: insulin 100 nM, 15 min; serum-starved. How it is done:
as §3, §4, §5

For assay [4], the system named is HA-GLUT4-GFP at the plasma membrane of L6-GLUT4 cells. Put plainly: On-Cell Western and HA-GLUT4-GFP endocytosis assay in L6-GLUT4 cells. In kind it is cell-based, rat. To be noted: insulin 100 nM, 15 min. How it is done: as §4
C) Knockdown of SHIP2 reduces metformin-induced glucose uptake. […] L6-GLUT4 myotubes overexpressing SHIP2 were treated and glucose uptake performed as described in C. […] Time point 15 min indicates the amount of HA detected on the cells after 15 min internalization.

Bounds are passed on as bounds.

For `Nc1nc2nc[nH]c2c(=S)[nH]1` [Thioguanine, 2-Amino-1H-purine-6(7H)-thione], in assay [1], the inhibition at 100 µM stood at 44.9% and the half-maximal inhibitory concentration (IC50) turned out to be 9 µM. In assay [2], the inhibition at 100 µM was 29.9% and the IC50 was above 50 µM.
`O=C(Cc1c(F)cccc1F)Nc1cc(OCc2ccc(Cl)cc2)ccn1` [N-[4-(4-chlorobenzyloxy)pyridin-2-yl]-2-(2,6-difluorophenyl)-acetamide]: the “PCK1 expression in db/db mice” value in the assay on db/db mice is “reduce”.
As for `NC(=O)c1ncn([C@@H]2O[C@H](CO)[C@@H](O)[C@H]2O)c1N` [AICAR, 5-aminoimidazole-4-carboxamide ribonucleoside], the “glucose uptake in podocytes” value in assay [3] (AICAR 1 mM, 20–24 h, alone) is “failed to increase”. Besides, in assay [3] (AICAR 1 mM, 20–24 h plus insulin 200 nM, 15 min), the “glucose uptake in podocytes, insulin combined with AICAR” value is recorded as “failed to increase”.
Regarding `CC(=O)O[C@]1(C(C)=O)CC[C@H]2[C@@H]3C=C(C)C4=CC(=O)CC[C@]4(C)[C@H]3CC[C@@]21C` [Megestrol acetate, 17-(acetyloxy)-6-methylpregna-4,6-diene-3,20-dione], in assay [1], the inhibition at 100 µM worked out at 76.6% and the IC50 was 6.2 µM. Also, in assay [2], the inhibition at 100 µM amounted to 30% and the IC50 came out at 24.6 µM.
In the same order, the values of `Sc1ncnc2nc[nH]c12` [Mercaptopurine, 3,7-dihydropurine-6-thione] are 52.9%, 8.8 µM, 11.4% and 21.2 µM.
In the case of “Insulin: insulin used to stimulate cells (100 or 200 nM, 15 min)”, the “increase in glucose uptake in L6-GLUT4 cells” value with L6-GLUT4 myotubes was found to be 20%. The “glucose uptake in podocytes” value in assay [3] (insulin 200 nM, 15 min) is on record as “did not respond”. The “decrease in amount of HA-GLUT4-GFP on the PM after 15 min uptake (endocytosis)” value in assay [4] is listed as 20%.

As usually defined, the inhibition is how much of the control response was suppressed. As a reminder, the IC50 is the concentration at which inhibition is half-maximal.
